Test results from patent publication US6610883B1, “Compounds having selective activity for retinoid X receptors, and means for modulation of processes mediated by retinoid X receptors” (Ligand Pharmaceuticals, Inc., priority 1992, dated 2003).

What was measured:
[1] = target: T1, RXRβ/VDR (UniProt P11473+P28704); assay: Co-transfection of RXRβ and VD receptors in CV-1 cells; assay type: cell-based
T1 construct: expressed in transfected cells; host or cells: CV-1

[2] = target: T2, RARβ (Homo sapiens, UniProt P10826); assay: Radioligand displacement binding, RARβ
T2 sequence (P10826 1-455): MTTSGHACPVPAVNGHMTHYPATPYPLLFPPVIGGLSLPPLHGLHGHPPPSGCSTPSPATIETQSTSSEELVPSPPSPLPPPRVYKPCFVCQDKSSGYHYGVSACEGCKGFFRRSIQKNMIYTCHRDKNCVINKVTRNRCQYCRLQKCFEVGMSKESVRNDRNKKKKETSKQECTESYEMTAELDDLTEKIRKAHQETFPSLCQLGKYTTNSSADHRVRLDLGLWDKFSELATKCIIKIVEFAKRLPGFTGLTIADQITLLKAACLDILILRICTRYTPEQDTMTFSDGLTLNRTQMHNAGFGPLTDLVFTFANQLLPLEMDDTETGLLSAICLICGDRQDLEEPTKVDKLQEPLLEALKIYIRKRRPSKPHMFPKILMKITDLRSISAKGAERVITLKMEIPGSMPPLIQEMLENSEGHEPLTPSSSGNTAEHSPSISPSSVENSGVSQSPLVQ
Protocol: (§7) The binding parameters of receptors expressed in baculovirus systems and mammalian systems are essentially identical.
(§8) By testing the abilities of various synthetic retinoids to compete with the radiolabeled retinoic acid for binding to various receptor isoforms, the ability of the compounds to directly interact with the receptor can be examined, and the relative dissociation constant for the receptor itself can be determined.
(§9) The Kd values were determined by application of the Cleng-Prusoff equation. These values were based on a determination of the IC50 value as determined graphically from a log-logit plot of the data.

[3] = target: T3, RARγ (Homo sapiens, UniProt P13631); assay: Radioligand displacement binding, RARγ
T3 sequence (P13631 1-454): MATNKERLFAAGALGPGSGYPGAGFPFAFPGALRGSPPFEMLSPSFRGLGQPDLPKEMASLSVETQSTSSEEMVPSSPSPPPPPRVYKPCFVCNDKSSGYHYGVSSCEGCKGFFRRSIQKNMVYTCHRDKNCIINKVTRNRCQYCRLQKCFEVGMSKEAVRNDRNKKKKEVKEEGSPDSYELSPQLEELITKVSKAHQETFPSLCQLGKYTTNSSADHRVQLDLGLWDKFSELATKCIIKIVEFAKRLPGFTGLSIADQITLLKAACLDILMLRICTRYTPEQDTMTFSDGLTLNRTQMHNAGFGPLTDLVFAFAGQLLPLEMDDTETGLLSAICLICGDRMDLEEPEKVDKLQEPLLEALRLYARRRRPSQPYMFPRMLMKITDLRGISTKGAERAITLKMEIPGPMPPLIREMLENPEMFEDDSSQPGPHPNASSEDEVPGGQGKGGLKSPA
Protocol: as §7, §8, §9

[4] = target: T4, RARα (Homo sapiens, UniProt P10276); assay: Radioligand displacement binding, RARα; design: made in house; conditions: displacement of radiolabeled retinoic acid, read-out: Binding (Kd50 nM)
T4 sequence (P10276 1-462): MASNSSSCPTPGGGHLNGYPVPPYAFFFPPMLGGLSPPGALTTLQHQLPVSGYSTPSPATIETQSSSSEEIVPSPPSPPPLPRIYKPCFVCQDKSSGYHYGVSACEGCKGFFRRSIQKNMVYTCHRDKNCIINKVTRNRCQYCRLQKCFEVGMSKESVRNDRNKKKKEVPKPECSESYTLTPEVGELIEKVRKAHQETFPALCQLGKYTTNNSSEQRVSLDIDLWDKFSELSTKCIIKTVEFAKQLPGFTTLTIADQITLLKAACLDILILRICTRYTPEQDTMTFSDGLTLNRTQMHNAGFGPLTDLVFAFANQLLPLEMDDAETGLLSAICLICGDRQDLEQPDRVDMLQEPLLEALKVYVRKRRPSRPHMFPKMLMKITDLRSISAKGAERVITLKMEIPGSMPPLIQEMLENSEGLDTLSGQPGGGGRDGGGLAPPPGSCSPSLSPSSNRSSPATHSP
Protocol: as §7, §8, §9

[5] = target: T2, RARβ; assay: Co-transfection (cis-trans) assay in CV-1 cells, RARβ; assay type: cell-based; design: expressed in transfected cells; host or cells: CV-1 (monkey kidney)
Source text: (§1) The co-transfection assay provides a mechanism to evaluate the ability of a compound to modulate the transcription response initiated by an intracellular receptor. […] Berger, et al., J. Steroid Biochem Molec.
(§2) Briefly, the co-transfection assay involves the introduction of two plasmids by transient transfection into a retinoid receptor-negative mammalian cell background. The first plasmid contains a retinoid receptor cDNA and directs constitutive expression of the encoded receptor. The second plasmid contains a cDNA that encodes for a readily quantifiable protein, e.g., firefly luciferase or chloramphenicol acetyl transferase (CAT), under control of a promoter containing a retinoid acid response element, which confers retinoid dependence on the transcription of the reporter. In this co-transfection assay, all retinoid receptors respond to all-trans-retinoic acid in a similar fashion. This assay can be used to accurately measure efficacy and potency of retinoic acid and synthetic retinoids as ligands that interact with the individual retinoid receptor subtypes.
(§3) Accordingly, synthetic retinoid compounds of the current invention were evaluated for their interaction with retinoid receptor subtypes using the co-transfection assay in which CV-1 cells were co-transfected with one of the retinoid receptor subtypes, a reporter construct, and an internal control to allow normalization of the response for transfection efficiency. The following example is illustrative.
(§4) Retinoids: All-tans-retinoic acid (RA) and 13-cis-retinoic acid (13-cis-RA) were obtained from Sigma. […] Retinoids were dissolved in dimethylsulfoxide for use in the transcriptional activation assays.
(§5) Co-transfection Assay In CV-1 Cells: A monkey kidney cell line, CV-1, was used in the cis-trans assay. Cells were transfected with two plasmids. […] The cis-vector contains an easily assayable gene product, in this case the firefly luciferase, coupled to a retinoid-responsive promoter, i.e., an RARE or RXRE. Addition of retinoic acid or an appropriate synthetic retinoid results in the formation of a retinoid-RAR or -RXR complex that activates the expression of luciferase gene, causing light to be emitted from cell extracts. The level of luciferase activity is directly proportional to the effectiveness of the retinoid-receptor complex in activating gene expression. This sensitive and reproducible co-transfection approach permits the identification of retinoids that interact with the different receptor isoforms.
(§6) Cells were cultured in DMEM supplemented with 10% charcoal resin-stripped fetal bovine serum, and experiments were conducted in 96-well plates. […] Cells were transfected for 6 h and then washed to remove the precipitate. The cells were then incubated for 36 h with or without retinoid. After the transfection, all subsequent steps were performed on a Beckman Biomek Automated Workstation. […] All determinations were performed in triplicate in two independent experiments and were normalized for transfection efficiency by using β-galactosidase as the internal control. […] Efficacy values less than 5% are not statistically different than the 0% background.

[6] = target: T3, RARγ; assay: Co-transfection (cis-trans) assay in CV-1 cells, RARγ; assay type: cell-based; design: expressed in transfected cells; host or cells: CV-1 (monkey kidney)
Source text: as §1, §2, §3, §4, §5, §6

[7] = target: T4, RARα; assay: Co-transfection (cis-trans) assay in CV-1 cells, RARα; assay type: cell-based; design: expressed in transfected cells; host or cells: CV-1 (monkey kidney)
Source text: as §1, §2, §3, §4, §5, §6

[8] = CV-1, maximal response relative to all-trans-retinoic acid at 10^−5 M, read-out: Efficacy
[9] = CV-1 cells, luciferase reporter, 36 h, read-out: Potency

T1 sequence (P28704 whole entry): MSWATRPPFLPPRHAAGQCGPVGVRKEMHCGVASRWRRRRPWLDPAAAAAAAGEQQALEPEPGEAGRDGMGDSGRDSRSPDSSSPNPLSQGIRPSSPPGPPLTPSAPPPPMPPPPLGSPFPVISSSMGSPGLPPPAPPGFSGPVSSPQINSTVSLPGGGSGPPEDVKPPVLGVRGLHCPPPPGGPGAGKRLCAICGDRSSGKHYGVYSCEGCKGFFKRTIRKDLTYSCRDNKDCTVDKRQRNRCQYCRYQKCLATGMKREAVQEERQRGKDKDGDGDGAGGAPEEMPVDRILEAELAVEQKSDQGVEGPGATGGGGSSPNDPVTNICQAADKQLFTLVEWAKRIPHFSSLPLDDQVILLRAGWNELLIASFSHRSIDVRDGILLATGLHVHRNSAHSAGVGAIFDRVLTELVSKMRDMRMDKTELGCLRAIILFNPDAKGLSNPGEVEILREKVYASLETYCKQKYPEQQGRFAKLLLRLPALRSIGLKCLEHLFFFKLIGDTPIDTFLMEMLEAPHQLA
T1 sequence (P11473 whole entry): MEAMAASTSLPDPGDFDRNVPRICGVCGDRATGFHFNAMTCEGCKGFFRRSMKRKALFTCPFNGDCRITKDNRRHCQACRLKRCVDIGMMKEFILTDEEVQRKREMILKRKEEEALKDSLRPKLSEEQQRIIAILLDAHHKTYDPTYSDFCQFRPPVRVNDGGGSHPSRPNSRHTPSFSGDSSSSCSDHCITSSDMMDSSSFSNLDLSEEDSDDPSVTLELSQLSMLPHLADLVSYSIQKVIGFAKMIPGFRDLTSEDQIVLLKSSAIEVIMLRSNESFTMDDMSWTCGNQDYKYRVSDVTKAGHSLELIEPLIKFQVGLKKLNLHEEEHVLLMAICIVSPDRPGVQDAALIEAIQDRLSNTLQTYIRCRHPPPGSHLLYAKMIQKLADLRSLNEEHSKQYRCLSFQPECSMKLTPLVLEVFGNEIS

| Compound | Normalized Response (%) [1] | Kd [2] | Kd [3] | Kd [4] | Emax at 10 µM [5, 8] | EC50 [5, 9] | Emax at 10 µM [6, 8] | EC50 [6, 9] | Emax at 10 µM [7, 8] | EC50 [7, 9] |
| --- | --- | --- | --- | --- | --- | --- | --- | --- | --- | --- |
| 1,25-dihydroxy-vitamin D | 100% |  |  |  |  |  |  |  |  |  |
| C=C(c1ccc(C(=O)O)cn1)c1cc2c(cc1C)C(C)(C)CCC2(C)C [TPNEP (58), 2-[1-(3,5,5,8,8-pentamethyl-5,6,7,8-tetrahydro-2-naphthyl)ethenyl]pyridine-5-carboxylic acid] |  | 4.9 µM | 6 µM | 7.8 µM | < 2% | > 10 µM | 24% | 1.5 µM | < 2% | > 10 µM |
